Source: the supplement of paper PMC11061612

Tests used:
Assay in all cases: combination Emax (second highest fraction inhibited in the dose matrix, 72 h); higher = more inhibition; extreme values may be limits of the assay
NCI-H2795 (Mesothelioma) = system: NCI-H2795 (Mesothelioma)
Method in brief: (§1)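 Cell lines grown in DMEM/F12 or RPMI with 10% FBS were plated in 1536-well plates and held 24 hours at 37°C, 5% CO2 before 72 hours of exposure to two-drug dose matrices, with DMSO typically at 0.2%. CellTiter-Glo 2.0 luminescence gave viability, which was converted to inhibition. Vehicle wells were set to 0 and blank wells to 1. Combination Emax is the second-highest inhibition in the matrix, and Bliss excess is the observed combination effect minus the expected EA + EB − EA·EB, where EA and EB are the single-agent effects.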

NCI-H2461 (Mesothelioma) = system: NCI-H2461 (Mesothelioma)
Method in brief: as §1

[1] = system: CAL-54 (Kidney Carcinoma)
Method in brief: as §1

[2] = system: LU-139 (Small Cell Lung Carcinoma)
Method in brief: as §1

[3] = system: K5 (Thyroid Gland Carcinoma)
Method in brief: as §1

[4] = system: PCI-30 (Head and Neck Carcinoma)
Method in brief: as §1

[5] = system: SW626 (Colorectal Carcinoma)
Method in brief: as §1

Compound | combination Emax (NCI-H2795 (Mesothelioma)) | combination Emax (NCI-H2461 (Mesothelioma)) | combination Emax [1] | combination Emax [2] | combination Emax [3] | combination Emax [4] | combination Emax [5]
C=CCn1c(=O)c2cnc(Nc3ccc(N4CCN(C)CC4)cc3)nc2n1-c1cccc(C(C)(C)O)n1 [AZD1775] + CCc1c2c(nc3ccc(O)cc13)-c1cc3c(c(=O)n1C2)COC(=O)[C@]3(O)CC [SN-38] (first compound max 1 µM, partner max 0.3 µM) | 0.779 | 0.702 | 0.843 | 0.849 | 0.594 | 0.836 | 
COc1nnc2ccc(N3CCC(c4ccc(OCCN5CCN(C)C(=O)[C@H]5C)cc4)CC3)nn12 [AZD5153] + C=CCn1c(=O)c2cnc(Nc3ccc(N4CCN(C)CC4)cc3)nc2n1-c1cccc(C(C)(C)O)n1 [AZD1775] (first compound max 1 µM, partner max 1 µM) | 0.597 | 0.655 | 0.832 | 0.89 | 0.719 | 0.395 | 0.75
COc1nnc2ccc(N3CCC(c4ccc(OCCN5CCN(C)C(=O)[C@H]5C)cc4)CC3)nn12 [AZD5153] + CC1(C)CCC(CN2CCN(c3ccc(C(=O)NS(=O)(=O)c4ccc(NCC5CCOCC5)c([N+](=O)[O-])c4)c(Oc4cnc5[nH]ccc5c4)c3)CC2)=C(c2ccc(Cl)cc2)C1 [Venetoclax] (first compound max 1 µM, 7x7, partner max 1 µM) | 0.465 | 0.517 | 0.769 | 0.948 | 0.668 | 0.344 | 0.689
COc1nnc2ccc(N3CCC(c4ccc(OCCN5CCN(C)C(=O)[C@H]5C)cc4)CC3)nn12 [AZD5153] + CCN(CCO)CCCOc1ccc2c(Nc3cc(CC(=O)Nc4cccc(F)c4)[nH]n3)ncnc2c1 [AZD2811] (first compound max 1 µM, 7x7, partner max 1 µM) | 0.497 | 0.592 | 0.778 | 0.903 | 0.714 | 0.41 | 0.735
COc1nnc2ccc(N3CCC(c4ccc(OCCN5CCN(C)C(=O)[C@H]5C)cc4)CC3)nn12 [AZD5153] + C[C@@H]1COCCN1C2=NC(=NC(=C2)C3(CC3)[S@](=N)(=O)C)C4=C5C=CNC5=NC=C4 [AZD6738] (first compound max 1 µM, 7x7, partner max 10 µM) | 0.801 | 0.649 | 0.823 | 0.947 | 0.788 | 0.404 | 0.798
COc1nnc2ccc(N3CCC(c4ccc(OCCN5CCN(C)C(=O)[C@H]5C)cc4)CC3)nn12 [AZD5153] + Cc1c2c(nn1C)CSCc1cc(n(C)n1)CSc1cc(c3ccccc3c1)OCCCc1c(C(=O)O)n(C)c3c-2c(Cl)ccc13 [AZD5991] (first compound max 1 µM, 7x7, partner max 1 µM) | 0.864 | 0.498 | 0.729 | 0.91 | 0.678 | 0.344 | 0.704
COc1nnc2ccc(N3CCC(c4ccc(OCCN5CCN(C)C(=O)[C@H]5C)cc4)CC3)nn12 [AZD5153] + Cn1cnc2c(F)c(Nc3ccc(Br)cc3Cl)c(C(=O)NOCCO)cc21 [Selumetinib] (first compound max 1 µM, 7x7, partner max 10 µM) | 0.853 | 0.501 | 0.765 | 0.912 | 0.845 | 0.368 | 0.881
NC1(C(=O)N[C@@H](CCO)c2ccc(Cl)cc2)CCN(c2ncnc3[nH]ccc23)CC1 [Capivasertib] + CC(=O)c1c(C)c2cnc(Nc3ccc(N4CCNCC4)cn3)nc2n(C2CCCC2)c1=O [Palbociclib] (first compound max 10 µM, 7x7, partner max 10 µM) | 0.489 | 0.467 | 0.658 | 0.0872 | 0.653 | 0.291 | 0.348
NC1(C(=O)N[C@@H](CCO)c2ccc(Cl)cc2)CCN(c2ncnc3[nH]ccc23)CC1 [Capivasertib] + CC(C)n1c(=O)n(C)c2cnc3cc(F)c(-c4ccc(OCCCN5CCCCC5)nc4)cc3c21 [AZD1390] (first compound max 10 µM, 7x7, partner max 0.3 µM) | 0.394 | 0.6 | 0.466 | 0.0539 | 0.405 | 0.298 | 0.273
NC1(C(=O)N[C@@H](CCO)c2ccc(Cl)cc2)CCN(c2ncnc3[nH]ccc23)CC1 [Capivasertib] + CCN(CCO)CCCOc1ccc2c(Nc3cc(CC(=O)Nc4cccc(F)c4)[nH]n3)ncnc2c1 [AZD2811] (first compound max 10 µM, 7x7, partner max 1 µM) | 0.413 | 0.564 | 0.545 | 0.293 | 0.554 | 0.28 | 0.292
NC1(C(=O)N[C@@H](CCO)c2ccc(Cl)cc2)CCN(c2ncnc3[nH]ccc23)CC1 [Capivasertib] + COc1nnc2ccc(N3CCC(c4ccc(OCCN5CCN(C)C(=O)[C@H]5C)cc4)CC3)nn12 [AZD5153] (first compound max 10 µM, 7x7, partner max 1 µM) | 0.398 | 0.526 | 0.775 | 0.864 | 0.929 | 0.366 | 0.642
NC1(C(=O)N[C@@H](CCO)c2ccc(Cl)cc2)CCN(c2ncnc3[nH]ccc23)CC1 [Capivasertib] + C[C@@H]1COCCN1C2=NC(=NC(=C2)C3(CC3)[S@](=N)(=O)C)C4=C5C=CNC5=NC=C4 [AZD6738] (first compound max 10 µM, 7x7, partner max 10 µM) | 0.737 | 0.797 | 0.813 | 0.25 | 0.687 | 0.482 | 0.68
NC1(C(=O)N[C@@H](CCO)c2ccc(Cl)cc2)CCN(c2ncnc3[nH]ccc23)CC1 [Capivasertib] + Cn1cnc2c(F)c(Nc3ccc(Br)cc3Cl)c(C(=O)NOCCO)cc21 [Selumetinib] (first compound max 10 µM, 7x7, partner max 10 µM) | 0.871 | 0.569 | 0.611 | 0.0716 | 0.864 | 0.342 | 0.65
Cc1nc(Nc2ncc(C(=O)Nc3c(C)cccc3Cl)s2)cc(N2CCN(CCO)CC2)n1 [Dasatinib] + CC(=O)Nc1cccc(-n2c(=O)n(C3CC3)c(=O)c3c(Nc4ccc(I)cc4F)n(C)c(=O)c(C)c32)c1 [Trametinib] (first compound max 2 µM, 7x7, partner max 1 µM) | 0.972 | 0.431 | 0.958 | 0.0497 | 0.929 | 0.643 | 0.849
COc1cc2ncnc(Nc3ccc(F)c(Cl)c3)c2cc1OCCCN1CCOCC1 [Gefitinib] + CC(C)n1c(=O)n(C)c2cnc3cc(F)c(-c4ccc(OCCCN5CCCCC5)nc4)cc3c21 [AZD1390] (first compound max 10 µM, 7x7, partner max 0.3 µM) | 0.324 | 0.256 | 0.486 | 0.0288 | 0.0692 | 0.131 | 0.0985
CS(=O)(=O)CCNCc1ccc(-c2ccc3ncnc(Nc4ccc(OCc5cccc(F)c5)c(Cl)c4)c3c2)o1 [Lapatinib] + C[C@@H](Oc1cc(-c2cnn(C3CCNCC3)c2)cnc1N)c1c(Cl)ccc(F)c1Cl [Crizotinib] (first compound max 10 µM, 7x7, partner max 10 µM) | 0.949 | 0.91 | 0.916 | 0.936 | 0.984 | 0.366 | 0.626
CS(=O)(=O)CCNCc1ccc(-c2ccc3ncnc(Nc4ccc(OCc5cccc(F)c5)c(Cl)c4)c3c2)o1 [Lapatinib] + Cn1cnc2c(F)c(Nc3ccc(Br)cc3Cl)c(C(=O)NOCCO)cc21 [Selumetinib] (first compound max 10 µM, 7x7, partner max 10 µM) | 0.893 | 0.488 | 0.559 | 0.161 | 0.597 | 0.335 | 
CS(=O)(=O)CCNCc1ccc(-c2ccc3ncnc(Nc4ccc(OCc5cccc(F)c5)c(Cl)c4)c3c2)o1 [Lapatinib] + NC1(c2ccc(-c3nc4ccn5c(=O)[nH]nc5c4cc3-c3ccccc3)cc2)CCC1 [MK-2206] (first compound max 10 µM, 7x7, partner max 10 µM) | 0.948 | 0.495 | 0.921 | 0.672 | 0.95 | 0.475 | 
CC(=O)c1c(C)c2cnc(Nc3ccc(N4CCNCC4)cn3)nc2n(C2CCCC2)c1=O [Palbociclib] + CC1(C)CCC(CN2CCN(c3ccc(C(=O)NS(=O)(=O)c4ccc(NCC5CCOCC5)c([N+](=O)[O-])c4)c(Oc4cnc5[nH]ccc5c4)c3)CC2)=C(c2ccc(Cl)cc2)C1 [Venetoclax] (first compound max 10 µM, 7x7, partner max 1 µM) | 0.351 | 0.308 | 0.527 | 0.37 | 0.452 | 0.223 | 0.153
CC(=O)c1c(C)c2cnc(Nc3ccc(N4CCNCC4)cn3)nc2n(C2CCCC2)c1=O [Palbociclib] + Cc1c2c(nn1C)CSCc1cc(n(C)n1)CSc1cc(c3ccccc3c1)OCCCc1c(C(=O)O)n(C)c3c-2c(Cl)ccc13 [AZD5991] (first compound max 10 µM, 7x7, partner max 1 µM) | 0.823 | 0.377 | 0.583 | 0.25 | 0.541 | 0.276 | 0.336
CC(=O)c1c(C)c2cnc(Nc3ccc(N4CCNCC4)cn3)nc2n(C2CCCC2)c1=O [Palbociclib] + Cn1cnc2c(F)c(Nc3ccc(Br)cc3Cl)c(C(=O)NOCCO)cc21 [Selumetinib] (first compound max 10 µM, 7x7, partner max 10 µM) | 0.89 | 0.395 | 0.616 | 0.282 | 0.627 | 0.223 | 0.531
C[C@@H](c1ccc2nccn2c1)n1nnc2ncc(-c3cnn(C)c3)nc21 [Savolitinib] + CC1(C)CCC(CN2CCN(c3ccc(C(=O)NS(=O)(=O)c4ccc(NCC5CCOCC5)c([N+](=O)[O-])c4)c(Oc4cnc5[nH]ccc5c4)c3)CC2)=C(c2ccc(Cl)cc2)C1 [Venetoclax] (first compound max 1 µM, 7x7, partner max 1 µM) | 0.22 | 0.301 | 0.143 | 0.281 | 0.0879 | 0.143 | 0.129
Cc1nc(-c2cn3c(n2)-c2ccc(-c4cnn(C(C)(C)C(N)=O)c4)cc2OCC3)n(C(C)C)n1 [Taselisib] + O=C(Nc1ccc2[nH]nc(-c3ccncc3)c2c1)[C@@H]1CCN(CC(=O)N2CCN(c3ccc(-c4ncccn4)cc3)CC2)C1 [SCH772984] (first compound max 10 µM, 7x7, partner max 5 µM) | 1 | 0.6 | 0.816 | 0.154 | 0.954 | 0.4 | 
